From article PMC3810134, “Substrate and Inhibitor Specificity of the Type II p21-Activated Kinase, PAK6” (PLoS ONE, 2013)
Like-named read-outs stand apart in the source and are kept apart here. Values belong to the compound of their own block, whether it stands above or below them. No end group written: not given here.

Key:
[1] = system: mouse models of cancer; details: ref [22]; cited from earlier work
Excerpt: (§1) ATP-competitive small molecule inhibitors of the type II PAKs could be useful as cancer therapeutics. […] Sunitinib (SU11248) is a potent ATP-competitive multi-kinase inhibitor that is indicated for treatment of renal cell carcinoma, imatinib-resistant gastrointestinal stromal tumors, advanced pancreatic neuroendocrine tumors and other tumor types [ ...

[2] = system: type II PAKs and also PAK1; details: each of the type II PAKs and also PAK1; ref [22]; cited from earlier work
Excerpt: as §1

[3] = system: human clinical trials; details: ref [22]; cited from earlier work
Excerpt: as §1

[4] = system: PAK kinases; details: ref [41], cited from earlier work
Excerpt: (§2) Therefore understanding how sunitinib binds to the type II PAKs may represent a starting point for future small molecule drug discovery. There are currently 6 co-crystal structures of protein kinases in complex with sunitinib deposited in the PDB. These kinases are of VEGFR (4AGD), KIT (3G0E), KIT-D816H mutation (3G0F), ITK (3MIY), CDK2 (3TI1) and phosphorylase kin ...

[5] = biological target: type II PAKs; details: range over the family, ref [41], read-out: Ki (estimated range); cited from earlier work
Excerpt: as §2

[6] = biological target: T1, PAK6 catalytic domain (residues 383–674) (Homo sapiens, UniProt Q9NQU5); experiment: In vitro PAK6 kinase assay (trans-inhibition by peptides, MBP substrate, radioactive); format: biochemical
T1 construct: recombinant PAK6 catalytic domain (residues 383–674) purified as described above; 6xHis (N, cleaved yes); made in house; host or cells: E. coli BL21(DE3)
Experimental: Catalytic domain residues 383–674 of PAK6 (UniProt Q9NQU5) were amplified from cDNA (Open Biosystems) then subcloned into a modified pET-32 vector with an N-terminal 6xHis tag cleavable by TEV protease. A single colony of transformed E. coli BL21(DE3) was grown in Luria-Bertani (LB) medium at 37°C for 7 hours with kanamycin sulfate (100 µg/ml). Then the fresh culture was inoculated (1∶100) into in LB supplemented with kanamycin sulfate (100 µg/ml). Protein expression was induced at an A 600 of 0.4 by addition of 0.3 mM isopropyl-thio-galactopyranoside (IPTG) at 18°C for 14 hr. Cells were harvested and then resuspended in lysis buffer (50 mM HEPES pH 7.5, 500 mM NaCl, 0.5 mM TCEP, and 1 mM PMSF). Lysozyme and DNAse-I were added and the mixture was incubated on ice before three cycles of flash-freezing in a dry ice and ethanol mixture and thawing at 4°C. Following sonication and centrifugation, the supernatant was collected and loaded onto a nickel sepharose column equilibrated with 100 ml binding buffer (50 mM HEPES pH 7.5, 500 mM NaCl, 5 mM imidazole, 0.5 mM TCEP, 5% glycerol). Contaminating proteins were washed away with 200 ml wash buffer (50 mM HEPES pH 7.5, 500 mM NaCl, 30 mM imidazole, 0.5 mM TCEP, 5% glycerol). PAK6 catalytic domain was eluted with an imidazole step gradient and identified by SDS-PAGE. Overnight TEV cleavage was performed by adding TEV protease and dialyzing the mixture against size exclusion buffer (50 mM Tris pH 8, 250 mM NaCl, 5 mM TCEP). PAK6 catalytic domain was then reloaded onto the nickel sepharose column to remove remaining uncleaved protein. The sample then was loaded onto a Superdex 75 16/60 gel-filtration column equilibrated with size exclusion buffer.
Kinase activity was assessed using a radioactive assay with myelin basic protein (MBP) as substrate. […] Kinase assays were performed by adding 150 nM of PAK6, 2 µM of MBP as the substrate, 50 µM of cold-ATP and 0.1 µCi of hot [γ-^33P] ATP in Tris buffer (20 mM Tris-HCl pH 8.0, 0.15 M NaCl, 1 mM DTT and 10 mM MgCl2) for a total volume of 25 µl. […] Control peptide ([…]) was purchased from Anaspec and inhibition assays were performed using between 0.5 mM and 4.5 mM of peptide. The reaction was conducted at 30°C for 10 min and stopped by addition of 5X sample buffer and analyzed by SDS-PAGE. Gels were analyzed by exposure to phosphor storage screen (GE) followed by scanning using a Molecular Imager FX Pro Plus System (Bio-Rad) and quantification by optical densitometry Quantity One (Bio-Rad). Relative activities were compared to those measured for PAK6. Measurements were calculated from at least three independent experiments.

[7] = 150 nM PAK6, 2 µM MBP, 50 µM cold-ATP, [γ-33P] ATP, 20 mM Tris-HCl pH 8.0, 0.15 M NaCl, 1 mM DTT, 10 mM MgCl2, 30°C, 10 min, SDS-PAGE/phosphor storage screen, 3 independent experiments, tested wild-type 0.06-5.85 mM, P52L 1.8-5.85 mM, control 0.5-4.5 mM, read-out: IC50 (inhibition of PAK6 kinase activity)
[8] = 95% confidence interval of the IC50, 3 independent experiments, read-out: 95% confidence (of IC50)

T1 sequence (Q9NQU5 383-674): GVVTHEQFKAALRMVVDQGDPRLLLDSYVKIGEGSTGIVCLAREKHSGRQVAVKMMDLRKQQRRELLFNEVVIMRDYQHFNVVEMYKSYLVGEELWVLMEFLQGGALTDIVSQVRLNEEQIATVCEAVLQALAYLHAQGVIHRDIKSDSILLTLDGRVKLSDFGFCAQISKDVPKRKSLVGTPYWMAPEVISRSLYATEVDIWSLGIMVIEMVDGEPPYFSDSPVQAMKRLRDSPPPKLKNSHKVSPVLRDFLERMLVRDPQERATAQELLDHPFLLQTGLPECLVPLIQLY

Compound: Cc1nc(Nc2[nH]nc3c2CN(C(=O)N[C@H](CN(C)C)c2ccccc2)C3(C)C)c2sccc2n1 [PF-3758309]
efficacy in mouse models of cancer [1]: effective in mouse models of cancer | in vitro activity [2]: displays in vitro activity against each of the type II PAKs and also PAK1 | outcome in human clinical trials [3]: failed in human clinical trials

Compound: CCN(CC)CCNC(=O)c1c(C)[nH]c(/C=C2\C(=O)Nc3ccc(F)cc32)c1C [Sunitinib]
inhibition of the PAK kinases overall [4]: weak inhibitor | selectivity ([4]; type II vs type I PAK family members): selectivity for type II over type I PAK family members | Ki [5]: 0.5 to 7 µM

Compound: APRTPGGRR [control peptide]
IC50 [6]: 3000 to 15000 µM

IC50 [6, 7]: 4200 µM | IC50 [6, 8]: 3800 to 4600 µM
Compound: RRPKLVVDP [P52L mutant peptide]

IC50 [6, 7]: 600 µM | IC50 [6, 8]: 510 to 710 µM
Compound: RRPKPVVDP [N-terminal peptide]
